Structure (SMILES) | melting point [°C]
COc1cc(F)ccc1-c1cncc(O[C@@H]2SC[C@@H](O)[C@H](O)[C@H]2O)c1 [Example 87, 5-(4-fluoro-2-methoxyphenyl)-3-pyridinyl 5-thio-β-D-xylopyranoside] | 218 to 228
COc1c(F)cc(-c2cncc(O[C@@H]3SC[C@@H](O)[C@H](O)[C@H]3O)c2)cc1F [Example 146, 5-(3,5-difluoro-4-methoxyphenyl)-3-pyridinyl 5-thio-β-D-xylopyranoside] | 203
O[C@@H]1[C@@H](O)[C@H](Oc2cccnc2-c2ccc(F)cc2)SC[C@H]1O [Example 73, 2-(4-fluorophenyl)-3-pyridinyl 5-thio-β-D-xylopyranoside] | 110
CN(C)c1ccc(-c2cncc(O[C@@H]3SC[C@@H](O)[C@H](O)[C@H]3O)c2)cc1 [Example 50, 5-[4-(dimethylamino)phenyl]-3-pyridinyl 5-thio-β-D-xylopyranoside] | 240
Cc1ccc(-c2cncc(O[C@@H]3SC[C@@H](O)[C@H](O)[C@H]3O)c2)cc1 [Example 52, 5-(4-methylphenyl)-3-pyridinyl 5-thio-β-D-xylopyranoside] | 228
N#Cc1cc(F)ccc1-c1cncc(O[C@@H]2SC[C@@H](O)[C@H](O)[C@H]2O)c1 [Example 148, 5-(2-cyano-4-fluorophenyl)-3-pyridinyl 5-thio-β-D-xylopyranoside] | 198 to 200
COc1ccc(-c2cncc(O[C@@H]3SC[C@@H](O)[C@H](O)[C@H]3O)c2)c(C)c1 [Example 105, 5-(4-methoxy-2-methylphenyl)-3-pyridinyl 5-thio-β-D-xylopyranoside] | 231
N#Cc1ccc(-c2ccncc2O[C@@H]2SC[C@@H](O)[C@H](O)[C@H]2O)cc1 [Example 28, 4-(4-cyanophenyl)-3-pyridinyl 5-thio-β-D-xylopyranoside] | 238
O[C@@H]1[C@@H](O)[C@H](Oc2cnccc2-c2ccc(F)cc2)SC[C@H]1O [Example 57, 4-(4-fluorophenyl)-3-pyridinyl 5-thio-β-D-xylopyranoside] | 219
COc1ccc(-c2cncc(O[C@@H]3SC[C@@H](O)[C@H](O)[C@H]3O)c2)c(Cl)c1 [Example 113, 5-(2-chloro-4-methoxyphenyl)-3-pyridinyl 5-thio-β-D-xylopyranoside] | 218
Cc1cc(C#N)ccc1-c1cncc(O[C@@H]2SC[C@@H](O)[C@H](O)[C@H]2O)c1 [Example 154, 5-(4-cyano-2-methylphenyl)-3-pyridinyl 5-thio-β-D-xylopyranoside] | 202 to 206
O[C@@H]1[C@@H](O)[C@H](Oc2cncc(Oc3ccccc3)c2)SC[C@H]1O [Example 26, 5-phenoxy-3-pyridinyl 5-thio-β-D-xylopyranoside] | 226
O[C@@H]1[C@@H](O)[C@H](Oc2ccc(-c3ccc(F)cc3)nc2)SC[C@H]1O [Example 129, 6-(4-fluorophenyl)-3-pyridinyl 5-thio-β-D-xylopyranoside] | 180 to 183
N#Cc1cccc(-c2cncc(O[C@@H]3SC[C@@H](O)[C@H](O)[C@H]3O)c2)c1 [Example 55, 5-(3-cyanophenyl)-3-pyridinyl 5-thio-β-D-xylopyranoside] | 172
O[C@@H]1[C@@H](O)[C@H](Oc2cncc(-c3ccc(F)cc3F)c2)SC[C@H]1O [Example 85, 5-(2,4-difluorophenyl)-3-pyridinyl 5-thio-β-D-xylopyranoside] | 221
Cc1ccc(-c2cncc(O[C@@H]3SC[C@@H](O)[C@H](O)[C@H]3O)c2)cc1C [Example 109, 5-(3,4-dimethylphenyl)-3-pyridinyl 5-thio-β-D-xylopyranoside] | 184
COc1ccc(-c2nccc(C)c2O[C@@H]2SC[C@@H](O)[C@H](O)[C@H]2O)cc1 [Example 75, 2-(4-methoxyphenyl)-4-methyl-3-pyridinyl 5-thio-β-D-xylopyranoside] | 101
CC(=O)O[C@@H]1[C@@H](OC(C)=O)[C@H](OC(C)=O)CS[C@H]1Oc1cncc(S(C)(=O)=O)c1 [Example 114, 5-methylsulfonyl-3-pyridinyl 2,3,4-tri-O-acetyl-5-thio-β-D-xylopyranoside] | 193
O[C@@H]1[C@@H](O)[C@H](Oc2cccnc2-c2ccc(OC(F)(F)F)cc2)SC[C@H]1O [Example 127, 2-[4-(trifluoromethoxy)phenyl]-3-pyridinyl 5-thio-β-D-xylopyranoside] | 114 to 119
N#Cc1ccc(-c2cncc(O[C@@H]3SC[C@@H](O)[C@H](O)[C@H]3O)c2)cc1F [Example 91, 5-(4-cyano-3-fluorophenyl)-3-pyridinyl 5-thio-β-D-xylopyranoside] | 214
N#Cc1ccc(-c2cncc(O[C@@H]3SC[C@@H](O)[C@H](O)[C@H]3O)c2)cc1Cl | 202 to 204
Cc1ccc(-c2cncc(O[C@@H]3SC[C@@H](O)[C@H](O)[C@H]3O)c2)c(Cl)c1 [Example 111, 5-(2-chloro-4-methylphenyl)-3-pyridinyl 5-thio-β-D-xylopyranoside] | 207

Structure (SMILES) | melting point [°C]
O[C@@H]1[C@@H](O)[C@H](Oc2cccnc2-c2ccccc2)SC[C@H]1O [Example 24, 2-phenyl-3-pyridinyl 5-thio-β-D-xylopyranoside] | 89 to 108
CC(=O)c1cccc(-c2ccc(O[C@@H]3SC[C@@H](O)[C@H](O)[C@H]3O)cn2)c1 [Example 124, 6-(3-acetylphenyl)-3-pyridinyl 5-thio-β-D-xylopyranoside] | 159 to 163
COc1ccc(-c2cncc(O[C@@H]3SC[C@@H](O)[C@H](O)[C@H]3O)c2)cc1OC [Example 71, 5-(3,4-dimethoxyphenyl)-3-pyridinyl 5-thio-β-D-xylopyranoside] | 211
Cc1cc(F)ccc1-c1cc(O[C@@H]2SC[C@@H](O)[C@H](O)[C@H]2O)ccn1 [Example 162, 2-(4-fluoro-2-methylphenyl)-4-pyridinyl 5-thio-β-D-xylopyranoside] | 147
N#Cc1cc(-c2cncc(O[C@@H]3SC[C@@H](O)[C@H](O)[C@H]3O)c2)ccc1F [Example 63, 5-(3-cyano-4-fluorophenyl)-3-pyridinyl 5-thio-β-D-xylopyranoside] | 197
CS(=O)(=O)c1cncc(O[C@@H]2SC[C@@H](O)[C@H](O)[C@H]2O)c1 [Example 115, 5-methylsulfonyl-3-pyridinyl 5-thio-β-D-xylopyranoside] | 183
COc1ccc(-c2cc(O[C@@H]3SC[C@@H](O)[C@H](O)[C@H]3O)ccn2)cc1 [Example 77, 2-(4-methoxyphenyl)-4-pyridinyl 5-thio-β-D-xylopyranoside] | 150 to 154
OCc1ccc(-c2ccc(O[C@@H]3SC[C@@H](O)[C@H](O)[C@H]3O)cn2)cc1 [Example 95, 6-[4-(hydroxymethyl)phenyl]-3-pyridinyl 5-thio-β-D-xylopyranoside] | 215
O[C@@H]1[C@@H](O)[C@H](Oc2cncc(-c3ccc(N4CCCCC4)cc3)c2)SC[C@H]1O [Example 48, 5-[4-(1-piperidinyl)phenyl]-3-pyridinyl 5-thio-β-D-xylopyranoside] | 196
Cc1cc(-c2cncc(O[C@@H]3SC[C@@H](O)[C@H](O)[C@H]3O)c2)ccc1C#N [Example 150, 5-(4-cyano-3-methylphenyl)-3-pyridinyl 5-thio-β-D-xylopyranoside] | 198 to 200
Cc1ccc(-c2cncc(O[C@@H]3SC[C@@H](O)[C@H](O)[C@H]3O)c2)cc1F [Example 107, 5-(3-fluoro-4-methylphenyl)-3-pyridinyl 5-thio-β-D-xylopyranoside] | 213
O=S(=O)(c1ccc(F)cc1)c1cncc(O[C@@H]2SC[C@@H](O)[C@H](O)[C@H]2O)c1 [Example 142, 5-[(4-fluorophenyl)sulfonyl]-3-pyridinyl 5-thio-β-D-xylopyranoside] | 93 to 96
O=C(NCc1ccccc1)c1ccc(O[C@@H]2SC[C@@H](O)[C@H](O)[C@H]2O)cn1 [Example 117, 6-{[(phenylmethyl)amino]carbonyl}-3-pyridinyl 5-thio-β-D-xylopyranoside] | 89 to 91
COc1c(C)cc(-c2cncc(O[C@@H]3SC[C@@H](O)[C@H](O)[C@H]3O)c2)cc1C [Example 83, 5-(3,5-dimethyl-4-methoxyphenyl)-3-pyridinyl 5-thio-β-D-xylopyranoside] | 173
COc1cccc(-c2cncc(O[C@@H]3SC[C@@H](O)[C@H](O)[C@H]3O)c2)c1 [Example 67, 5-(3-methoxyphenyl)-3-pyridinyl 5-thio-β-D-xylopyranoside] | 200
COc1ccc(-c2cncc(O[C@@H]3SC[C@@H](O)[C@H](O)[C@H]3O)c2)cc1Cl [Example 65, 5-(3-chloro-4-methoxyphenyl)-3-pyridinyl 5-thio-β-D-xylopyranoside] | 165
CC(=O)c1cccc(-c2ncccc2O[C@@H]2SC[C@@H](O)[C@H](O)[C@H]2O)c1 [Example 128, 2-(3-acetylphenyl)-3-pyridinyl 5-thio-β-D-xylopyranoside] | 128 to 133
CC(=O)O[C@@H]1[C@@H](OC(C)=O)[C@H](OC(C)=O)CS[C@H]1Oc1cncc(C(C)=O)c1 [Example 118, 5-acetyl-3-pyridinyl 2,3,4-tri-O-acetyl-5-thio-β-D-xylopyranoside] | 157
CCN(CC)C(=O)c1cncc(O[C@@H]2SC[C@@H](O)[C@H](O)[C@H]2O)c1 [Example 160, 5-[(N,N-diethylamino)carbonyl]-3-pyridinyl 5-thio-β-D-xylopyranoside] | 143
O=S(=O)(c1ccccc1)c1cncc(O[C@@H]2SC[C@@H](O)[C@H](O)[C@H]2O)c1 [Example 140, 5-(phenylsulfonyl)-3-pyridinyl 5-thio-β-D-xylopyranoside] | 86
O[C@@H]1[C@@H](O)[C@H](Oc2cncc(-c3c(F)cc(F)cc3F)c2)SC[C@H]1O [Example 144, 5-(2,4,6-trifluorophenyl)-3-pyridinyl 5-thio-β-D-xylopyranoside] | 228
